From patent US20260053834A1, “COVALENT MODIFIERS OF AKT1 AND USES THEREOF” (Terremoto Biosciences, Inc., priority 2023, published 2026)

Columns and labels:
AKT1 WT = molecular target: T1, AKT1 WT (Homo sapiens, UniProt P31749); assay: Live cell target engagement by NanoBRET competitive probe displacement, AKT1 WT; type: binding; conditions: transfected HEK293 cells, 2 h at 37° C., read-out: AKT1 WT IC50: GeoMean IC50
T1 construct: expressed in transfected cells; host or cells: HEK293

[1] = system: LAPC4 prostate cancer cells, which express the AKT1 E17K allele; assay: Antiproliferative effects in LAPC4 cells (CellTiter Glo, 72 h); type: cell-based; conditions: Homo sapiens, LAPC4, 72 h, read-out: LAPC4 proliferation IC50: GeoMean IC50
Procedure, shortened: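 IC50 values come from Hill-equation fitting of luminescence (cellular ATP) after 72 h compound exposure. Treated wells held 1,000 cells each, with compound delivered as DMSO dilutions. Culture medium was IMDM plus 12% FBS.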

AKT2 = molecular target: T2, AKT2 (Homo sapiens, UniProt P31751); assay: Live cell target engagement by NanoBRET competitive probe displacement, AKT2; type: binding; conditions: transfected HEK293 cells, 2 h at 37° C., read-out: AKT2 IC50: GeoMean IC50
T2 construct: expressed in transfected cells; host or cells: HEK293

AKT1 E17K = molecular target: T3, AKT1 E17K (Homo sapiens, UniProt P31749, E17K); assay: Live cell target engagement by NanoBRET competitive probe displacement, AKT1 E17K; type: binding; conditions: transfected HEK293 cells, 2 h at 37° C., read-out: AKT1 E17K IC50: GeoMean IC50
T3 construct: expressed in transfected cells; host or cells: HEK293
T3 sequence (P31749 whole entry E17K): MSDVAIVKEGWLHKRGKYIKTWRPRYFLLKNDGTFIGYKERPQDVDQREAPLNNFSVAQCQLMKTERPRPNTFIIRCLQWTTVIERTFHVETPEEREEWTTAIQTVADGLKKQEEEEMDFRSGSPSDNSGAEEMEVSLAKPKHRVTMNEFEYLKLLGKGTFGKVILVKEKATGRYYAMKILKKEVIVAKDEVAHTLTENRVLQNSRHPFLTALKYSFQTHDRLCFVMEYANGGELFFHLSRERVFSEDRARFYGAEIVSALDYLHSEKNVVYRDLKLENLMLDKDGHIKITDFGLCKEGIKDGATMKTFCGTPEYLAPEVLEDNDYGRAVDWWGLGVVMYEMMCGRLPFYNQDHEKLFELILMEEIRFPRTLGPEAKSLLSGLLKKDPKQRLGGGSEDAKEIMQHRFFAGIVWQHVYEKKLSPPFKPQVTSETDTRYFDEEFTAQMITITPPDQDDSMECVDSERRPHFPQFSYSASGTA

T2 sequence (P31751 whole entry): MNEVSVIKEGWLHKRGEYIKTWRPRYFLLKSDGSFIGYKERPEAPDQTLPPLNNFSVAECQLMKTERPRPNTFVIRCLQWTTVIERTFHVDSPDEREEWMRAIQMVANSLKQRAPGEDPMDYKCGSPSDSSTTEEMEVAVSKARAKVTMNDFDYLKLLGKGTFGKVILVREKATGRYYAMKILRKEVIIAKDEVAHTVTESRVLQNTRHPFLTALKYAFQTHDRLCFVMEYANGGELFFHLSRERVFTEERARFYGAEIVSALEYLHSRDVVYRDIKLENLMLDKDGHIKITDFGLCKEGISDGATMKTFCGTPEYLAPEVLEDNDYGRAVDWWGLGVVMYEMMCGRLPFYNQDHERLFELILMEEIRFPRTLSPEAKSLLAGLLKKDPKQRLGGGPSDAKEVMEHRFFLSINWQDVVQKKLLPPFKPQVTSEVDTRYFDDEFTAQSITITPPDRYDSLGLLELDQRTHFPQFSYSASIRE
T1 sequence (P31749 whole entry): as the sequence (P31749 whole entry E17K) above, with K17E counted along it

| Structure (SMILES) | IC50 (AKT1 WT) | IC50 [1] | IC50 (AKT2) | IC50 (AKT1 E17K) |
| --- | --- | --- | --- | --- |
| Nc1ncccc1-c1nc2ccc(-c3cnccn3)nc2n1-c1ccc2c(c1)CC[C@@H]2NC(=O)c1cc(C=O)c2[nH]ncc2c1 [Example 73, (S)—N-(5-(2-(2-aminopyridin-3-yl)-5-(pyrazin-2-yl)-3H-imidazo[4,5-b]pyridin-3-yl)-2,3-dihydro-1H-inden-1-yl)-7-formyl-1H-indazole-5-carboxamide] | 10 to 100 nM | 10 to 100 nM | 100 to 2000 nM | < 10 nM |
| Nc1ncccc1-c1nc2ccc(-c3ccccc3)nc2n1-c1ccc2c(c1)CC[C@@H]2NC(=O)c1ccc(C=O)c(O)c1 [Example 30, N-[(1S)-5-[2-(2-aminopyridin-3-yl)-5-phenylimidazo[4,5-b]pyridin-3-yl]-2,3-dihydro-1H-inden-1-yl]-4-formyl-3-hydroxybenzamide] | 100 to 2000 nM | ≥ 2000 nM | 100 to 2000 nM | 100 to 2000 nM |
| Nc1ncccc1-c1nc2ccc(-n3cccn3)nc2n1-c1ccc2c(c1)CC[C@@H]2NC(=O)c1cc(Cl)c(O)c(C=O)c1 [Example 93, N-[(1S)-5-[2-(2-aminopyridin-3-yl)-5-(pyrazol-1-yl)imidazo[4,5-b]pyridin-3-yl]-2,3-dihydro-1H-inden-1-yl]-3-chloro-5-formyl-4-hydroxybenzamide] | 10 to 100 nM | 100 to 2000 nM | 100 to 2000 nM | 10 to 100 nM |
| CN(C)C(=O)Nc1ccc(C(=O)N[C@H]2CCc3cc(-n4c(-c5cccnc5N)nc5ccc(-n6cccn6)nc54)ccc32)cc1C=O [Example 104, N-[(1S)-5-[2-(2-aminopyridin-3-yl)-5-(pyrazol-1-yl)imidazo[4,5-b]pyridin-3-yl]-2,3-dihydro-1H-inden-1-yl]-4-[(dimethylcarbamoyl)amino]-3-formylbenzamide] | 10 to 100 nM | < 10 nM | 100 to 2000 nM | < 10 nM |
| N#Cc1ccc2nc(-c3cccnc3N)n(-c3ccc4c(c3)CC[C@@H]4NC(=O)c3ccc(O)c(C=O)c3)c2n1 [Example 79, (S)—N-(5-(2-(2-aminopyridin-3-yl)-5-cyano-3H-imidazo[4,5-b]pyridin-3-yl)-2,3-dihydro-1H-inden-1-yl)-3-formyl-4-hydroxybenzamide] | 100 to 2000 nM | ≥ 2000 nM | ≥ 2000 nM | 100 to 2000 nM |
| Nc1ncccc1-c1nc2ccc(-n3cccn3)nc2n1-c1ccc2c(c1)CC[C@@H]2NC(=O)c1ccc(O)c(C=O)c1 [Example 33, (S)—N-(5-(2-(2-aminopyridin-3-yl)-5-(1H-pyrazol-1-yl)-3H-imidazo[4,5-b]pyridin-3-yl)-2,3-dihydro-1H-inden-1-yl)-3-formyl-4-hydroxybenzamide] | 10 to 100 nM | 10 to 100 nM | 100 to 2000 nM | 10 to 100 nM |
| C#Cc1cc(C(=O)N[C@H]2CCc3cc(-n4c(-c5cccnc5N)nc5ccc(-n6cccn6)nc54)ccc32)cc(C=O)c1O [Example 101, N-[(1S)-5-[2-(2-aminopyridin-3-yl)-5-(pyrazol-1-yl)imidazo[4,5-b]pyridin-3-yl]-2,3-dihydro-1H-inden-1-yl]-3-ethynyl-5-formyl-4-hydroxybenzamide] | 10 to 100 nM | 100 to 2000 nM | 100 to 2000 nM | 10 to 100 nM |
| Nc1ncccc1-c1nc2ccc(-c3cnn(C4CC4)c3)nc2n1-c1ccc2c(c1)CC[C@@H]2NC(=O)c1ccc(O)c(C=O)c1 [Example 62, N-[(1S)-5-[2-(2-aminopyridin-3-yl)-5-(1-cyclopropylpyrazol-4-yl)imidazo[4,5-b]pyridin-3-yl]-2,3-dihydro-1H-inden-1-yl]-3-formyl-4-hydroxybenzamide] | 10 to 100 nM | 100 to 2000 nM | 100 to 2000 nM | 10 to 100 nM |
| Nc1ncccc1-c1nc2ccc(-c3ccc(F)cc3)nc2n1-c1ccc2c(c1)CC[C@@H]2NC(=O)c1ccc(O)c(C=O)c1 [Example 20, (S)—N-(5-(2-(2-aminopyridin-3-yl)-5-(4-fluorophenyl)-3H-imidazo[4,5-b]pyridin-3-yl)-2,3-dihydro-1H-inden-1-yl)-3-formyl-4-hydroxybenzamide] | 10 to 100 nM | 10 to 100 nM | 100 to 2000 nM | 10 to 100 nM |
| Nc1ncccc1-c1nc2ccc(-c3ccccc3)nc2n1-c1ccc2c(c1)CC[C@@H]2NC(=O)c1cc(C=O)c2[nH]ncc2c1 [Example 35, N-[(1S)-5-[2-(2-aminopyridin-3-yl)-5-phenylimidazo[4,5-b]pyridin-3-yl]-2,3-dihydro-1H-inden-1-yl]-7-formyl-1H-indazole-5-carboxamide] | 10 to 100 nM | < 10 nM | 10 to 100 nM | < 10 nM |

More lines, now with the values ahead:

| IC50 (AKT1 WT) | IC50 [1] | IC50 (AKT2) | IC50 (AKT1 E17K) | Structure (SMILES) |
| --- | --- | --- | --- | --- |
| 10 to 100 nM | 10 to 100 nM | 100 to 2000 nM | < 10 nM | Cc1cnc(-c2ccc3nc(-c4cccnc4N)n(-c4ccc5c(c4)CC[C@@H]5NC(=O)c4ccc(O)c(C=O)c4)c3n2)s1 [Example 132, (S)—N-(5-(2-(2-aminopyridin-3-yl)-5-(5-methylthiazol-2-yl)-3H-imidazo[4,5-b]pyridin-3-yl)-2,3-dihydro-1H-inden-1-yl)-3-formyl-4-hydroxybenzamide] |
| 10 to 100 nM | 10 to 100 nM | 100 to 2000 nM | 10 to 100 nM | Nc1ncccc1-c1nc2ccc(-c3nc(C(F)F)cs3)nc2n1-c1ccc2c(c1)CC[C@@H]2NC(=O)c1ccc(O)c(C=O)c1 [Example 147, N-[(1S)-5-[2-(2-aminopyridin-3-yl)-5-[4-(difluoromethyl)-1,3-thiazol-2-yl]imidazo[4,5-b]pyridin-3-yl]-2,3-dihydro-1H-inden-1-yl]-3-formyl-4-hydroxybenzamide] |
| 10 to 100 nM | 100 to 2000 nM | 100 to 2000 nM | 10 to 100 nM | Cc1cc(C)n(-c2ccc3nc(-c4cccnc4N)n(-c4ccc5c(c4)CC[C@@H]5NC(=O)c4ccc(O)c(C=O)c4)c3n2)n1 [Example 129, N-[(1S)-5-[2-(2-aminopyridin-3-yl)-5-(3,5-dimethylpyrazol-1-yl)imidazo[4,5-b]pyridin-3-yl]-2,3-dihydro-1H-inden-1-yl]-3-formyl-4-hydroxybenzamide] |
| 100 to 2000 nM | 100 to 2000 nM | 100 to 2000 nM | 100 to 2000 nM | Nc1ncccc1-c1nc2c(-n3cn[nH]c3=O)cc(-n3cccn3)nc2n1-c1ccc2c(c1)CC[C@@H]2NC(=O)c1ccc(O)c(C=O)c1 [Example 233, N-[(1S)-5-[2-(2-aminopyridin-3-yl)-7-(3-oxo-2H-1,2,4-triazol-4-yl)-5-(pyrazol-1-yl)imidazo[4,5-b]pyridin-3-yl]-2,3-dihydro-1H-inden-1-yl]-3-formyl-4-hydroxybenzamide] |
| 100 to 2000 nM | ≥ 2000 nM | ≥ 2000 nM | 100 to 2000 nM | CS(=O)(=O)Nc1ncc(C(=O)N[C@H]2CCc3cc(-n4c(-c5cccnc5N)nc5ccc(-n6cccn6)nc54)ccc32)cc1C=O [Example 111, N-[(1S)-5-[2-(2-aminopyridin-3-yl)-5-(pyrazol-1-yl)imidazo[4,5-b]pyridin-3-yl]-2,3-dihydro-1H-inden-1-yl]-5-formyl-6-methanesulfonamidopyridine-3-carboxamide] |
| 10 to 100 nM | 10 to 100 nM | 10 to 100 nM | 10 to 100 nM | Nc1ncccc1-c1nc2ccc(-c3nccs3)nc2n1-c1ccc2c(c1)CC[C@@H]2NC(=O)c1cc(C=O)c(O)cc1F [Example 144, N-[(1S)-5-[2-(2-aminopyridin-3-yl)-5-(1,3-thiazol-2-yl)imidazo[4,5-b]pyridin-3-yl]-2,3-dihydro-1H-inden-1-yl]-2-fluoro-5-formyl-4-hydroxybenzamide] |
| 10 to 100 nM | 10 to 100 nM | 100 to 2000 nM | < 10 nM | COc1c(O)c(C=O)cc(C(=O)N[C@H]2CCc3cc(-n4c(-c5cccnc5N)nc5ccc(-n6cccn6)nc54)ccc32)c1F [Example 214, N-[(1S)-5-[2-(2-aminopyridin-3-yl)-5-(pyrazol-1-yl)imidazo[4,5-b]pyridin-3-yl]-2,3-dihydro-1H-inden-1-yl]-2-fluoro-5-formyl-4-hydroxy-3-methoxybenzamide] |
| 10 to 100 nM | 10 to 100 nM | 100 to 2000 nM | < 10 nM | Cn1ncc(-c2ccc3nc(-c4cccnc4N)n(-c4ccc5c(c4)CC[C@@H]5NC(=O)c4ccc(O)c(C=O)c4)c3n2)n1 [Example 120, N-[(1S)-5-[2-(2-aminopyridin-3-yl)-5-(2-methyl-1,2,3-triazol-4-yl)imidazo[4,5-b]pyridin-3-yl]-2,3-dihydro-1H-inden-1-yl]-3-formyl-4-hydroxybenzamide] |
| 100 to 2000 nM | 100 to 2000 nM | 100 to 2000 nM | 10 to 100 nM | COCc1cnn(-c2ccc3nc(-c4cccnc4N)n(-c4ccc5c(c4)CC[C@@H]5NC(=O)c4cc(C=O)c(O)cc4F)c3n2)c1 [Example 152, (S)—N-(5-(2-(2-aminopyridin-3-yl)-5-(4-(methoxymethyl)-1H-pyrazol-1-yl)-3H-imidazo[4,5-b]pyridin-3-yl)-2,3-dihydro-1H-inden-1-yl)-2-fluoro-5-formyl-4-hydroxybenzamide] |
| 10 to 100 nM | 100 to 2000 nM | 100 to 2000 nM | 10 to 100 nM | Nc1ncccc1-c1nc2ccc(-n3cccn3)nc2n1-c1ccc2c(c1)CC[C@@H]2NC(=O)c1cc(C=O)c(O)cc1-n1cccn1 [Example 205, N-[(1S)-5-[2-(2-aminopyridin-3-yl)-5-(pyrazol-1-yl)imidazo[4,5-b]pyridin-3-yl]-2,3-dihydro-1H-inden-1-yl]-5-formyl-4-hydroxy-2-(pyrazol-1-yl)benzamide] |
